Data: US8937067B2, “Activators of human pyruvate kinase” (The United States of America, as represented by the …, priority 2008, dated 2015)
Where “and” joins values, the source holds several entries; their conditions need not be identical. Identical values can stand only once. Like-named read-outs stand apart in the source and are kept apart here.

What was measured:
hPK-M2 [1] = biological target: T1, hPK-M2 (Homo sapiens, UniProt P14618); assay: Luminescent pyruvate kinase-luciferase coupled assay (KinaseGlo); format: biochemical; conditions: for activation at 57 µM: read-out: hPK, M2 Max. Res.
T1 sequence (P14618 whole entry): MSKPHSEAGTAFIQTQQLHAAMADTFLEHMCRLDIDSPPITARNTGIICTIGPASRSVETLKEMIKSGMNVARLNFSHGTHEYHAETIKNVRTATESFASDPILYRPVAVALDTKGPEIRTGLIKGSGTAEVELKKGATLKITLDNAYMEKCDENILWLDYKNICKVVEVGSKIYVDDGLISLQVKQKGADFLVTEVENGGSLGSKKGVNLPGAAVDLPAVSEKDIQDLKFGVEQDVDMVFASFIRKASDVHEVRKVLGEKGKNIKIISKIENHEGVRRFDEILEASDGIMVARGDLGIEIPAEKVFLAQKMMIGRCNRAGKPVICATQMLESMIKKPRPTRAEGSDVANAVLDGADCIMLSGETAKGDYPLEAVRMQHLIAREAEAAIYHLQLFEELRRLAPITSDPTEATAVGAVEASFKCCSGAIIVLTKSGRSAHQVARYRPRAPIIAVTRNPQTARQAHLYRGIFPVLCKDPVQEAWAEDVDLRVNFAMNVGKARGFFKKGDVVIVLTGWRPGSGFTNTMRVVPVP
Experimental: Luminescent Pyruvate Kinase-Luciferase Coupled Assay.
Production of a luminescent signal based on the generation of ATP by pyruvate kinase was determined by using the ATP-dependent enzyme firefly luciferase. Three μL of substrate mix (at r.t.) in assay buffer (50 mM imidazole pH 7.2, 50 mM KCl, 7 mM MgCl2, 0.01% tween 20, 0.05% BSA) was dispensed into Kalypsys white solid bottom 1,536 well microtiter plates using a bottle-valve solenoid-based dispenser (Kalypsys). The final concentrations of substrates in the assay were 0.1 mM ADP and 0.5 mM PEP. […] Microtiter plates were incubated at r.t. for 1 hour and 2 uL of luciferase detection mix (Kinase-Glo, Promega at 4° C. protected from light) was added and luminescence was read with a ViewLux (Perkin Elmer) using a 5 second exposure/plate. Data was normalized for AC50 values to control columns containing uninhibited enzyme (n), and AC100 inhibition (i) according the following equation: Activation (%)=[(c−n)/(n−i)]*100 where c=compound, n=DMSO neutral, i=no enzyme control. […] Monitoring of activation was accomplished using enzyme at 3× the final concentration.

hPK-M2 [2] = biological target: T1, hPK-M2; assay: Fluorescent pyruvate kinase-lactate dehydrogenase (LDH) coupled secondary assay; format: biochemical; conditions: for AC50: read-out: AC50, LDH assay; for Emax: read-out: maximum response, LDH assay
Experimental: Fluorescent Pyruvate Kinase-Lactate Dehydrogenase Coupled Secondary Assay.
Plates were immediately placed in ViewLux (Perkin Elmer) and NADH fluorescence was determined at 30 second exposure intervals for between 3 and 6 minutes. Data were normalized to the uninhibited and EC100 activation using known activators such as fructose-1,6-bis-phosphate. […] Data was collected on the Perkin Elmer Viewlux.

[3] = KinaseGlo, % activation at 57 μM of compound
[4] = luminescent pyruvate kinase-luciferase coupled assay (KinaseGlo), tables, read-out: hPK, M2 AC50

Row | AC50 (hPK-M2 [1]; [4]) [nM] | hPK, M2 Max. Res. (hPK-M2 [1]; [3]) [%] | Compound | activation at 57 µM (hPK-M2 [1]; [3]) [%] | also measured
1 | 111 |  | COc1ccc(S(=O)(=O)N2CCN(S(=O)(=O)c3ccc4c(c3)OCCO4)CC2)cc1 [Compound 1, 1-(2,3-dihydrobenzo[b][1,4]dioxin-6-ylsulfonyl)-4-(4-methoxyphenylsulfonyl)piperazine] | 92.2 ± 12 | AC50 (hPK-M2 [1]; luciferase-coupled assay, read-out: AC50): 63 ± 20 nM; maximum response (hPK-M2 [1]; luciferase-coupled assay, relative to activation by FBP): 122.1% and 92.2%; AC50 (hPK-M2 [2]): 300 ± 100 nM; Emax (hPK-M2 [2]): 224%
2 | 316 |  | O=S(=O)(c1cccc(F)c1)N1CCN(S(=O)(=O)c2ccc3c(c2)OCCO3)CC1 [Compound 7, 1-(2,3-dihydrobenzo[b][1,4]dioxin-6-ylsulfonyl)-4-(3-fluorophenylsulfonyl)piperazine] | 107 ± 8.8 | Emax (hPK-M2 [1]; luciferase-coupled assay, relative to activation by FBP, read-out: maximum response): 96.3%; Emax (hPK-M2 [2]): 259%
3 | 90 |  | COc1ccc(S(=O)(=O)N2CCN(S(=O)(=O)c3c(F)cccc3F)CC2)cc1 [Compound 21, 1-(2,6-difluorophenylsulfonyl)-4-(4-methoxyphenylsulfonyl)piperazine] | 102 ± 9.2 | AC50 (hPK-M2 [2]): 211 ± 50 nM; Emax (hPK-M2 [2]): 124 ± 30%
4 | 81 | 63.00 | CCNc1cccc(S(=O)(=O)N2CCN(S(=O)(=O)c3ccc4c(c3)OCCO4)CC2)c1 [Compound 136] |  | 
5 | 92 | 54.00 | CN(C)c1cccc(S(=O)(=O)N2CCN(S(=O)(=O)c3ccc4c(c3)OCCO4)CC2)c1 [Compound 138] |  | 
6 | 290 | 67.00 | CNc1cccc(S(=O)(=O)N2CCN(S(=O)(=O)c3ccc4c(c3)OCCO4)CC2)c1 [Compound 142] |  | 
7 | 1600 | 81.00 | Nc1cc(S(=O)(=O)N2CCN(S(=O)(=O)c3ccc4c(c3)OCCO4)CC2)ccn1 [Compound 146] |  | 

The next lines start with the compound.

Row | Compound | AC50 (hPK-M2 [1]; [4]) [nM] | hPK, M2 Max. Res. (hPK-M2 [1]; [3]) [%] | activation at 57 µM (hPK-M2 [1]; [3]) [%] | also measured
8 | Cc1cc2c(s1)c1cnn(Cc3cccc(F)c3F)c(=O)c1n2C [Compound 114, 2,4-Methyl-6-[(2,3-difluorophenyl)methyl]-4H-thieno[3,2-b]pyrrole[3,2-d]pyridazinone] | 215 ± 60 |  | 72.8 ± 7.8 | 
9 | Cc1cc2c(s1)c1cnn(Cc3c(F)cccc3Cl)c(=O)c1n2C [Compound 115, 2,4-Methyl-6-[(2-chloro-6-fluorophenyl)methyl]-4H-thieno[3,2-b]pyrrole[3,2-d]pyridazinone] | 60 ± 20 |  | 92.9 ± 4.1 | 
10 | Cc1cc2c(s1)c1cnn(Cc3ccc(F)c(F)c3F)c(=O)c1n2C [Compound 116, 2,4-Methyl-6-[(2,3,4-trifluorophenyl)methyl]-4H-thieno[3,2-b]pyrrole[3,2-d]pyridazinone] | 174 ± 70 |  | 69.2 ± 14.6 | 
11 | Cc1cc2c(s1)c1cnn(Cc3c(F)c(F)cc(F)c3F)c(=O)c1n2C [Compound 117, 2,4-Methyl-6-[(2,3,5,6-tetrafluorophenyl)methyl]-4H-thieno[3,2-b]pyrrole[3,2-d]pyridazinone] | 345 ± 60 |  | 59.4 ± 6.3 | 
12 | Cc1cc2c(s1)c1cnn(Cc3cccc(C)c3F)c(=O)c1n2C [Compound 118, 2,4-Methyl-6-[(3-methyl-2-fluorophenyl)methyl]-4H-thieno[3,2-b]pyrrole[3,2-d]pyridazinone] | 35 ± 10 |  | 97.4 ± 6.9 | 
13 | Cc1cc2c(s1)c1cnn(Cc3ccc(C)c(F)c3F)c(=O)c1n2C [Compound 119, 2,4-Methyl-6-[(4-methyl-2,3-fluorophenyl)methyl]-4H-thieno[3,2-b]pyrrole[3,2-d]pyridazinone] | 108 ± 30 | 80.5 ± 5.8 |  | 
14 | COc1cccc(Cn2ncc3c4sc([S+](C)[O-])cc4n(C)c3c2=O)c1 (centres unmarked) [Compound 148] | 92 |  | 89 | 
15 | Cn1c2cc([S+](C)[O-])sc2c2cnn(Cc3cccc(N)c3)c(=O)c21 (centres unmarked) [Compound 149] |  |  |  | activation at 57 µM (hPK-M2 [1]): 91%
16 | O=C(COP(=O)(O)O)[C@@H](O)[C@H](O)[C@H](O)COP(=O)(O)O [FBP, fructose-1,6-bis-phosphate, reference compound] |  |  |  | % Activation by FBP (hPK-M2 [1]; average, 100% is approximately a 2-fold increase over basal signal): 100%
